Measurements published in ChEMBL document CHEMBL1201862, “PubChem BioAssay data set” (2004).
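Tested at 5 concentrations; 48 h exposure; 96-well plates; endpoints linearly interpolated, else capped at highest concentration. Abbreviation: GI50, concentration required for 50% inhibition of growth.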 Calls of active or inactive are those of the source. No stated cut-off is given here; in the data, active = GI50 up to about 1.1 µM and inactive = higher.

Columns and labels:
Experiment in all cases: growth of human tumour cells (NCI), 48 h
UACC-257 = system: UACC-257
BT-549 = system: BT-549
RXF 393 = system: RXF 393
SW-620 = system: SW-620
MDA-MB-435 = system: MDA-MB-435
A498 = system: A498
NCI-H23 = system: NCI-H23
LOX IMVI = system: LOX IMVI
EKVX = system: EKVX
HCT-116 = system: HCT-116
UO-31 = system: UO-31
U-251 = system: U-251
NCI/ADR-RES = system: NCI/ADR-RES
TK-10 = system: TK-10
A549 = system: A549
MDA-MB-231 = system: MDA-MB-231
KM12 = system: KM12
SN12C = system: SN12C
M14 = system: M14
SK-MEL-28 = system: SK-MEL-28

| SMILES | GI50 (UACC-257) | GI50 (BT-549) | GI50 (RXF 393) | GI50 (SW-620) | GI50 (MDA-MB-435) | GI50 (A498) | GI50 (NCI-H23) | GI50 (LOX IMVI) | GI50 (EKVX) | GI50 (HCT-116) | GI50 (UO-31) | GI50 (U-251) | GI50 (NCI/ADR-RES) | GI50 (TK-10) | GI50 (A549) | GI50 (MDA-MB-231) | GI50 (KM12) | GI50 (SN12C) | GI50 (M14) | GI50 (SK-MEL-28) |
| --- | --- | --- | --- | --- | --- | --- | --- | --- | --- | --- | --- | --- | --- | --- | --- | --- | --- | --- | --- | --- |
| [N-]=[N+]=NC(c1ccccc1)(c1ccccc1)c1ccccc1 | 16 µM (inactive) | 19.7 µM (inactive) | 15.7 µM (inactive) | 17.7 µM (inactive) | 19.1 µM (inactive) | 17.3 µM (inactive) | 16.5 µM (inactive) | 19.1 µM (inactive) | 14.2 µM (inactive) | 16 µM (inactive) | 16 µM (inactive) | 15.8 µM (inactive) | 16.7 µM (inactive) | 17.5 µM (inactive) | 17 µM (inactive) | 16.5 µM (inactive) | 18.2 µM (inactive) | 16.7 µM (inactive) | 18.4 µM (inactive) | 18.4 µM (inactive) |
| CN(C)c1ccc(/C=C(\C#N)C(N)=C(C#N)C#N)cc1 | 97.9 µM (inactive) | > 100 µM (inactive) | > 100 µM (inactive) | > 100 µM (inactive) | > 100 µM (inactive) | > 100 µM (inactive) | > 100 µM (inactive) | > 100 µM (inactive) | > 100 µM (inactive) | > 100 µM (inactive) | > 100 µM (inactive) | > 100 µM (inactive) | > 100 µM (inactive) | > 100 µM (inactive) | > 100 µM (inactive) | > 100 µM (inactive) | > 100 µM (inactive) | > 100 µM (inactive) | 30 µM (inactive) | 80 µM (inactive) |
| C/C(=N\NC(=O)c1ccncc1)c1ccccc1Cl | > 100 µM (inactive) | > 100 µM (inactive) | > 100 µM (inactive) | > 100 µM (inactive) | > 100 µM (inactive) | > 100 µM (inactive) | > 100 µM (inactive) | > 100 µM (inactive) | > 100 µM (inactive) | > 100 µM (inactive) | > 100 µM (inactive) | > 100 µM (inactive) | > 100 µM (inactive) | > 100 µM (inactive) | > 100 µM (inactive) | > 100 µM (inactive) | > 100 µM (inactive) | > 100 µM (inactive) | > 100 µM (inactive) | > 100 µM (inactive) |
| O=c1[nH]c(NCc2cccnc2)nc2[nH]cnc12 | > 100 µM (inactive) | > 100 µM (inactive) | > 100 µM (inactive) | > 100 µM (inactive) | > 100 µM (inactive) | > 100 µM (inactive) | > 100 µM (inactive) | > 100 µM (inactive) | > 100 µM (inactive) | > 100 µM (inactive) | > 100 µM (inactive) | > 100 µM (inactive) | > 100 µM (inactive) | > 100 µM (inactive) | > 100 µM (inactive) | > 100 µM (inactive) | > 100 µM (inactive) | > 100 µM (inactive) | > 100 µM (inactive) |  |
| CC(C)(C)c1ccc(C(C)(C)C)c(N2C(=O)[C@@H]3[C@@H]4C=C[C@@H](C4)[C@]3(C)C2=O)c1 | 23.1 µM (inactive) | 22.4 µM (inactive) | 15.5 µM (inactive) | 21.1 µM (inactive) | 15.5 µM (inactive) | 16.5 µM (inactive) | 45.1 µM (inactive) | 13.9 µM (inactive) | 47.3 µM (inactive) | 15.5 µM (inactive) | 29.3 µM (inactive) | 18.7 µM (inactive) | 29.6 µM (inactive) | 35 µM (inactive) | 41 µM (inactive) | 28.4 µM (inactive) | 36.6 µM (inactive) | 20.1 µM (inactive) | 19.5 µM (inactive) | 31.3 µM (inactive) |
| O=C1CC2(CCN(CC3COc4ccccc4O3)CC2)C(=O)N1N1CCCCCC1 (stereo not given) | 13.9 µM (inactive) | 61.7 µM (inactive) | 64.6 µM (inactive) |  | 40 µM (inactive) | > 100 µM (inactive) | 16.9 µM (inactive) | 28.9 µM (inactive) | > 100 µM (inactive) | 52.6 µM (inactive) | > 100 µM (inactive) | > 100 µM (inactive) | 52.7 µM (inactive) | > 100 µM (inactive) | > 100 µM (inactive) | > 100 µM (inactive) |  | > 100 µM (inactive) | 69.3 µM (inactive) | > 100 µM (inactive) |
| CSC1=Nc2ccccc2-c2nc3ccccc3cc2C1 | > 100 µM (inactive) | > 100 µM (inactive) | > 100 µM (inactive) |  | > 100 µM (inactive) | > 100 µM (inactive) | > 100 µM (inactive) | > 100 µM (inactive) | > 100 µM (inactive) | > 100 µM (inactive) | > 100 µM (inactive) | > 100 µM (inactive) | > 100 µM (inactive) | > 100 µM (inactive) | > 100 µM (inactive) | > 100 µM (inactive) | 14.4 µM (inactive) | > 100 µM (inactive) | > 100 µM (inactive) | > 100 µM (inactive) |
| NC1=Nc2cc(C(F)(F)F)ccc2Sc2nc3ccccc3n21 | 41.2 µM (inactive) | > 100 µM (inactive) | > 53.5 µM (inactive) | > 100 µM (inactive) | > 100 µM (inactive) | > 45.5 µM (inactive) | 31.3 µM (inactive) | 4.85 µM (inactive) | 13.8 µM (inactive) | 3.73 µM (inactive) | > 20.5 µM (inactive) | 5.56 µM (inactive) | > 100 µM (inactive) | > 67 µM (inactive) | > 56 µM (inactive) | 38.1 µM (inactive) | > 37 µM (inactive) | 57.5 µM (inactive) | 3.98 µM (inactive) | > 100 µM (inactive) |
| C/C(=N/NC(=S)N1CCCC1)c1cccc(/C(C)=N\NC(=S)N2CCCC2)n1 |  | 2.23 µM (inactive) | 1.32 µM (inactive) | 0.267 µM (active) | 1.43 µM (inactive) | 1.29 µM (inactive) | 1.88 µM (inactive) | 0.0847 µM (active) | 0.152 µM (active) | 1.14 µM (inactive) | 0.766 µM (active) | 1.5 µM (inactive) | 1.96 µM (inactive) | 1.39 µM (inactive) | 1.44 µM (inactive) | 0.046 µM (active) | 1.22 µM (inactive) | 1.14 µM (inactive) | 1.25 µM (inactive) | 1.97 µM (inactive) |
| Cc1ccccc1C(=O)N/N=C/c1ccc(Sc2nccn2C)c([N+](=O)[O-])c1 | > 100 µM (inactive) | 67.1 µM (inactive) | 74.3 µM (inactive) | > 100 µM (inactive) | 25.9 µM (inactive) | > 100 µM (inactive) | > 100 µM (inactive) | 50.8 µM (inactive) | 64.9 µM (inactive) | 84.3 µM (inactive) | > 100 µM (inactive) | 85.1 µM (inactive) | > 100 µM (inactive) | > 100 µM (inactive) | > 100 µM (inactive) | 72.3 µM (inactive) | 66.7 µM (inactive) | > 100 µM (inactive) | > 100 µM (inactive) | > 100 µM (inactive) |
| Cc1cc2c3c(ccc4[nH]cc(c43)CN2c2ccc(NS(C)(=O)=O)cc2)n1 | > 100 µM (inactive) | 35.5 µM (inactive) | 28.9 µM (inactive) | > 100 µM (inactive) | > 100 µM (inactive) | 41.4 µM (inactive) | 20.8 µM (inactive) | > 100 µM (inactive) | 26.8 µM (inactive) | 11.4 µM (inactive) | 12.7 µM (inactive) | 22.5 µM (inactive) | > 100 µM (inactive) | 26.2 µM (inactive) | 25.6 µM (inactive) | 22 µM (inactive) | > 100 µM (inactive) |  | > 100 µM (inactive) | > 100 µM (inactive) |
| CCOP(=O)(O)CN1CCNCCN(CP(=O)(O)OCC)CCNCC1 | > 100 µM (inactive) | > 100 µM (inactive) | > 100 µM (inactive) | > 100 µM (inactive) | > 100 µM (inactive) | > 100 µM (inactive) |  | > 100 µM (inactive) | > 100 µM (inactive) | > 100 µM (inactive) | 35.2 µM (inactive) | > 100 µM (inactive) | > 100 µM (inactive) | > 100 µM (inactive) | > 100 µM (inactive) | > 100 µM (inactive) | > 100 µM (inactive) | > 100 µM (inactive) |  | > 100 µM (inactive) |
| CC(C)C(C/C=C1\CC(CO)(COC(=O)c2ccccc2)OC1=O)C(C)C (stereo not given) | 27.6 µM (inactive) | 21.7 µM (inactive) | 23 µM (inactive) | 18 µM (inactive) | 84.9 µM (inactive) | 21.3 µM (inactive) | 20.2 µM (inactive) | 19.5 µM (inactive) | 14.9 µM (inactive) | 17.2 µM (inactive) | 17.4 µM (inactive) | 19.1 µM (inactive) | 20.7 µM (inactive) | 19 µM (inactive) | 15.8 µM (inactive) | 21.3 µM (inactive) | 17.5 µM (inactive) | 17.2 µM (inactive) | 14.8 µM (inactive) | 16.3 µM (inactive) |
| Cc1c(-c2ccccc2)[nH]n(C2=NCCN2)c1=O | > 100 µM (inactive) | > 100 µM (inactive) | > 100 µM (inactive) | > 100 µM (inactive) | > 100 µM (inactive) | > 100 µM (inactive) | > 100 µM (inactive) | > 100 µM (inactive) | > 100 µM (inactive) | > 100 µM (inactive) | 85.1 µM (inactive) | > 100 µM (inactive) | > 100 µM (inactive) | > 100 µM (inactive) | > 100 µM (inactive) | > 100 µM (inactive) | > 100 µM (inactive) |  | > 100 µM (inactive) |  |
